Measurements as given in patent US20260022142A1, “MACROCYCLIC IMMUNOMODULATORS” (Bristol-Myers Squibb Company, priority 2022, published 2026).
Bridge positions count the residues as written; N and C are the ends. Square brackets hold non-standard residues; d marks the D form. Peptide text beside a SMILES is read from it. * marks the point of attachment. Bip = N[C@@H](Cc1ccc(-c2ccccc2)cc1)C(=O)O; Phe(3-Me) = Cc1cccc(C[C@H](N)C(=O)O)c1; Cha = N[C@@H](CC1CCCCC1)C(=O)O; dCha = N[C@H](CC1CCCCC1)C(=O)O; dNle = CCCC[C@@H](N)C(=O)O; Carboxymethyl = O=C(O)C*; Orn = NCCC[C@H](N)C(=O)O; Aun = NCCCCCCCCCCC(=O)O; Dab = NCC[C@H](N)C(=O)O; Dap = NC[C@H](N)C(=O)O; AEEA = NCCOCCOCC(=O)O

Molecular target: T1, PD-1/PD-L1 interaction (PE-labeled human PD-L1-Ig binding to Jurkat cell line over-expressing human PD-1) (Homo sapiens, UniProt Q15116)
T1 construct: expressed in transfected cells; host or cells: Jurkat
T1 sequence (Q15116 25-288): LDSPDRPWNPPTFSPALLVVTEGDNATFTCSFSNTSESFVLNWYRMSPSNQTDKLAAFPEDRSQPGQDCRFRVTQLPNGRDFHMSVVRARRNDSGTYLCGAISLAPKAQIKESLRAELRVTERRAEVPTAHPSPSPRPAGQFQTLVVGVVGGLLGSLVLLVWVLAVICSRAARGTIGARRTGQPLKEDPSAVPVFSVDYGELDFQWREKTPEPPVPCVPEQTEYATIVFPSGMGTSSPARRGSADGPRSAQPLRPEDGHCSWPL
Assay: Jurkat-PD-1 Cell Binding High-Content Screening Assay (CBA)
Format: cell-based
Conditions: Jurkat cell line over-expressing human PD-1; PE-labeled PD-L1-Ig 20 nM final; read-out: Jurkat hPD1-PDL1 IC50
Method in brief: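 Jurkat cells over-expressing human PD-1 (8×10^3 per well, DMEM/10% FCS) preincubated with compound 2 h at 37° C, then PE-labeled human PD-L1-Ig (20 nM final) added for 1 h. Cells fixed with paraformaldehyde, Hoechst-stained, and bound fluorescence quantified by high-content imaging.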

Row | IC50 [nM] | Compound
1 | 10 | CCCC[C@H]1NC(=O)[C@H](CCCN)NC(=O)[C@H](C(C)C)NC(=O)[C@H](Cc2ccc(-c3ccccc3)cc2)NC(=O)[C@H](C(C)C)NC(=O)[C@H](Cc2cccc(C)c2)NC(=O)[C@H](CC(=O)O)NC(=O)[C@H](Cc2ccc(OCC(=O)O)cc2)NC(=O)[C@H](CN)NC(=O)CSC[C@@H](C(=O)N[C@@H](CCCCN)C(=O)NCCCCCCCCCCC(=O)O)NC(=O)[C@H](CCCN)NC(=O)[C@H](C(C)C)NC(=O)[C@H](CC2CCCCC2)NC(=O)[C@H](CCN)NC1=O [Compound 2687] ({CH2CO}-[Dap]Y(Carboxymethyl)D[Phe(3-Me)]V[Bip]V[Orn][dNle][Dab][Cha]V[Orn]CK[Aun]-OH; thioether N-14)
2 | 15.6 | Cc1cccc(C[C@@H]2NC(=O)[C@H](CC(=O)O)NC(=O)[C@H](Cc3ccc(OCC(=O)O)cc3)NC(=O)[C@H](CN)NC(=O)CSC[C@@H](C(=O)N[C@@H](CCCCN)C(=O)NCCCCCCCCCCC(=O)O)NC(=O)[C@H](CCCN)NC(=O)[C@H](C(C)C)NC(=O)[C@H](CC3CCCCC3)NC(=O)[C@H](CCN)NC(=O)[C@@H](CC3CCCCC3)NC(=O)[C@H](CCCN)NC(=O)[C@H](C(C)C)NC(=O)[C@H](Cc3ccc(-c4ccccc4)cc3)NC(=O)[C@H](C(C)C)NC2=O)c1 [Compound 2688] ({CH2CO}-[Dap]Y(Carboxymethyl)D[Phe(3-Me)]V[Bip]V[Orn][dCha][Dab][Cha]V[Orn]CK[Aun]-OH; thioether N-14)
3 | 15 | Cc1cccc(C[C@@H]2NC(=O)[C@H](CC(=O)O)NC(=O)[C@H](Cc3ccc(OCC(=O)O)cc3)NC(=O)[C@H](CN)NC(=O)CSC[C@@H](C(=O)NCCOCCOCC(=O)NCCCCCCCCCCC(=O)O)NC(=O)[C@H](CCCN)NC(=O)[C@H](C(C)C)NC(=O)[C@H](CC3CCCCC3)NC(=O)[C@H](CCN)NC(=O)[C@@H](CC(C)C)NC(=O)[C@H](CCCN)NC(=O)[C@H](Cc3ccc(O)cc3)NC(=O)[C@H](Cc3ccc(-c4ccccc4)cc3)NC(=O)[C@H](Cc3ccc(O)cc3)NC2=O)c1 [Compound 2691] ({CH2CO}-[Dap]Y(Carboxymethyl)D[Phe(3-Me)]Y[Bip]Y[Orn][dL][Dab][Cha]V[Orn]C[AEEA][Aun]-OH; thioether N-14)
4 | 6.3 | Cc1cccc(C[C@@H]2NC(=O)[C@H](CC(=O)O)NC(=O)[C@H](Cc3ccc(OCC(=O)O)cc3)NC(=O)[C@H](CN)NC(=O)CSC[C@@H](C(=O)NCCOCCOCC(=O)NCCCCCCCCCCC(=O)O)NC(=O)[C@H](CCCN)NC(=O)[C@H](C(C)C)NC(=O)[C@H](CC3CCCCC3)NC(=O)[C@H](CCN)NC(=O)[C@@H](CC(C)C)NC(=O)[C@H](CCCN)NC(=O)[C@H](Cc3ccc(O)cc3)NC(=O)[C@H](Cc3ccc(-c4ccccc4)cc3)NC(=O)[C@H](C(C)C)NC2=O)c1 [Compound 2692] ({CH2CO}-[Dap]Y(Carboxymethyl)D[Phe(3-Me)]V[Bip]Y[Orn][dL][Dab][Cha]V[Orn]C[AEEA][Aun]-OH; thioether N-14)
5 | 13 | Cc1cccc(C[C@@H]2NC(=O)[C@H](CC(=O)O)NC(=O)[C@H](Cc3ccc(OCC(=O)O)cc3)NC(=O)[C@H](CN)NC(=O)CSC[C@@H](C(=O)NCCCCCCCCCCC(=O)O)NC(=O)[C@H](CCCN)NC(=O)[C@H](C(C)C)NC(=O)[C@H](CC3CCCCC3)NC(=O)[C@H](CCN)NC(=O)[C@@H](CC(C)C)NC(=O)[C@H](CCCN)NC(=O)[C@H](Cc3ccc(O)cc3)NC(=O)[C@H](Cc3ccc(-c4ccccc4)cc3)NC(=O)[C@H](Cc3ccc(O)cc3)NC2=O)c1 [Compound 2693] ({CH2CO}-[Dap]Y(Carboxymethyl)D[Phe(3-Me)]Y[Bip]Y[Orn][dL][Dab][Cha]V[Orn]C[Aun]-OH; thioether N-14)
6 | 9.9 | Cc1cccc(C[C@@H]2NC(=O)[C@H](CC(=O)O)NC(=O)[C@H](Cc3ccc(OCC(=O)O)cc3)NC(=O)[C@H](CN)NC(=O)CSC[C@@H](C(=O)NCCCCCCCCCCC(=O)O)NC(=O)[C@H](CCCN)NC(=O)[C@H](C(C)C)NC(=O)[C@H](CC3CCCCC3)NC(=O)[C@H](CCN)NC(=O)[C@@H](CC(C)C)NC(=O)[C@H](CCCN)NC(=O)[C@H](Cc3ccc(O)cc3)NC(=O)[C@H](Cc3ccc(-c4ccccc4)cc3)NC(=O)[C@H](C(C)C)NC2=O)c1 [Compound 2694] ({CH2CO}-[Dap]Y(Carboxymethyl)D[Phe(3-Me)]V[Bip]Y[Orn][dL][Dab][Cha]V[Orn]C[Aun]-OH; thioether N-14)
7 | 5.1 | Cc1cccc(C[C@@H]2NC(=O)[C@H](CC(=O)O)NC(=O)[C@H](Cc3ccc(O)cc3)NC(=O)[C@H](CC(N)=O)NC(=O)CSC[C@@H](C(=O)N[C@@H](CCN)C(=O)NCCOCCOCC(=O)NCCCCCCCCCCC(=O)O)NC(=O)[C@H](CCCN)NC(=O)[C@H](C(C)C)NC(=O)[C@H](CC3CCCCC3)NC(=O)[C@H](CCN)NC(=O)[C@@H](CC(C)C)NC(=O)[C@H](CCCN)NC(=O)[C@H](Cc3ccc(O)cc3)NC(=O)[C@H](Cc3ccc(-c4ccccc4)cc3)NC(=O)[C@H](C(C)C)NC2=O)c1 [Compound 2695] ({CH2CO}-NYD[Phe(3-Me)]V[Bip]Y[Orn][dL][Dab][Cha]V[Orn]C[Dab][AEEA][Aun]-OH; thioether N-14)
8 | 19.1 | Cc1cccc(C[C@@H]2NC(=O)[C@H](CC(=O)O)NC(=O)[C@H](Cc3ccc(O)cc3)NC(=O)[C@H](CC(N)=O)NC(=O)CSC[C@@H](C(=O)N[C@@H](CCN)C(=O)NCCCCCCCCCCC(=O)O)NC(=O)[C@H](CCCN)NC(=O)[C@H](C(C)C)NC(=O)[C@H](CC3CCCCC3)NC(=O)[C@H](CCN)NC(=O)[C@@H](CC(C)C)NC(=O)[C@H](CCCN)NC(=O)[C@H](Cc3ccc(O)cc3)NC(=O)[C@H](Cc3ccc(-c4ccccc4)cc3)NC(=O)[C@H](C(C)C)NC2=O)c1 [Compound 2696] ({CH2CO}-NYD[Phe(3-Me)]V[Bip]Y[Orn][dL][Dab][Cha]V[Orn]C[Dab][Aun]-OH; thioether N-14)
9 | 4.9 | Cc1cccc(C[C@@H]2NC(=O)[C@H](CC(=O)O)NC(=O)[C@H](Cc3ccc(OCC(=O)O)cc3)NC(=O)[C@H](CC(N)=O)NC(=O)CSC[C@@H](C(=O)N[C@@H](CCN)C(=O)NCCOCCOCC(=O)NCCCCCCCCCCC(=O)O)NC(=O)[C@H](CCCN)NC(=O)[C@H](C(C)C)NC(=O)[C@H](CC3CCCCC3)NC(=O)[C@H](CCN)NC(=O)[C@@H](CC(C)C)NC(=O)[C@H](CCCN)NC(=O)[C@H](Cc3ccc(O)cc3)NC(=O)[C@H](Cc3ccc(-c4ccccc4)cc3)NC(=O)[C@H](C(C)C)NC2=O)c1 [Compound 2697] ({CH2CO}-NY(Carboxymethyl)D[Phe(3-Me)]V[Bip]Y[Orn][dL][Dab][Cha]V[Orn]C[Dab][AEEA][Aun]-OH; thioether N-14)
10 | 11 | Cc1cccc(C[C@@H]2NC(=O)[C@H](CC(=O)O)NC(=O)[C@H](Cc3ccc(OCC(=O)O)cc3)NC(=O)[C@H](CC(N)=O)NC(=O)CSC[C@@H](C(=O)N[C@@H](CCN)C(=O)NCCCCCCCCCCC(=O)O)NC(=O)[C@H](CCCN)NC(=O)[C@H](C(C)C)NC(=O)[C@H](CC3CCCCC3)NC(=O)[C@H](CCN)NC(=O)[C@@H](CC(C)C)NC(=O)[C@H](CCCN)NC(=O)[C@H](Cc3ccc(O)cc3)NC(=O)[C@H](Cc3ccc(-c4ccccc4)cc3)NC(=O)[C@H](C(C)C)NC2=O)c1 [Compound 2698] ({CH2CO}-NY(Carboxymethyl)D[Phe(3-Me)]V[Bip]Y[Orn][dL][Dab][Cha]V[Orn]C[Dab][Aun]-OH; thioether N-14)
